# According to patent US20250017889A1, “INHIBITORS OF P1B-TYPE ATPASES” (THE CURATORS OF THE UNIVERSITY OF MISSOURI, priority 2021, published 2025):
# Assays:
# [1] = Cytotoxicity in B16 cells by MTT and crystal violet assays; assay type: cell-based; settings: mouse
# Text: This is consistent with lower affinity of MKV1 for ATP7A (FIG. 6E).
# [2] = tested on: GFP alone; test: Microscale thermophoresis (MST), GFP alone as negative control; assay type: binding
# Text: Coordinating residues D935 and E798 are predicted to bind copper during transport.
# [3] = tested on: B16 melanoma lung tumors; test: Melanin production in B16 melanoma tumors on the lungs of mice; assay type: in vivo, C57BL/6 mice; settings: 50 mg/kg subcutaneously every other day for 7 days
# Protocol: Previous studies have shown that ATP7A is essential for copper delivery into the secretory pathway to tyrosinase, a copper-dependent enzyme required for melanogenesis. […] To confirm that ATP7A is required for tyrosinase activity, B16 melanoma cells were generated in which the ATP7A gene was deleted by CRISPR-CAS9 to generate ATP7A^KO cells. As expected, tyrosinase activity was absent in the B16 ATP7A^KO cells. […] Wild type B16 melanoma cells were injected by tail vein into C57BL/6 mice to establish metastatic tumors on the lungs. […] Left panel images show the lungs of three different mice immediately after dissection. In control mice, darkly pigmented melanoma nodules were readily apparent on the lungs (white arrows).
# [4] = tested on: ATP7A trafficking in 4T1 breast cancer cells; test: Copper-stimulated trafficking of ATP7A by immunofluorescence microscopy; assay type: cell-based; settings: 10 μM, 4 h, 4T1 cells
# Protocol: Since the copper-stimulated trafficking of ATP7A is dependent on its transport activity, an inhibitor of ATP7A would be expected to block copper-stimulated trafficking of ATP7A. 4T1 breast cancer cells were pre-grown on glass coverslips for 16 hours in media containing 10 μM of the copper chelator bathocuproine disulfonate to create a baseline of low copper levels. […] After 4 h, the cells were fixed, permeabilized and stained with anti-ATP7A antibodies (green). Nuclei were labeled with DAPI stain. In vehicle treated control cells, the ATP7A protein was strongly detected in the perinuclear region (13A), which is consistent with its known location in the trans-Golgi compartment. As expected, the copper treatment stimulated ATP7A trafficking from the perinuclear region into cytoplasmic vesicles (13B).
# [5] = tested on: 4T1, B16 and HEK293 cell lines; test: Cellular copper concentrations by ICP-MS; assay type: cell-based; settings: 10 μM, 24 hours
# Protocol: Since ATP7A functions in copper export from cells, an inhibitor of ATP7A activity would be expected to increase cellular copper concentrations. […] After 24 hours, cellular copper concentrations were measured using inductively coupled plasma mass spectroscopy (ICP-MS).
# [6] = tested on: 4T1, B16 and LLC cells; test: Sensitivity of cells to elevated copper concentrations; assay type: cell-based; settings: 10 μM, 48 h
# Text: It is well-known that copper export via ATP7A is the major mechanism by which cells are protected against rising copper levels, which is facilitated by Cu-stimulated trafficking of ATP7A from the trans-Golgi to the plasma membrane. Therefore, a predicted consequence of an ATP7A inhibitor would be an increase of the sensitivity of cells to high copper concentrations.
# [7] = target: T1, ATP7B (hATP7B) (Homo sapiens, UniProt P35670); test: Tyrosinase activation in B16 ATP7A^KO cells transfected with human ATP7B; assay type: cell-based; settings: 10 μM, 24 h, ATP7A^KO melanoma cells
# T1 construct: expressed in transfected cells; host or cells: B16 melanoma ATP7A^KO cells (mouse), transient transfection
# T1 sequence (P35670 1-1465): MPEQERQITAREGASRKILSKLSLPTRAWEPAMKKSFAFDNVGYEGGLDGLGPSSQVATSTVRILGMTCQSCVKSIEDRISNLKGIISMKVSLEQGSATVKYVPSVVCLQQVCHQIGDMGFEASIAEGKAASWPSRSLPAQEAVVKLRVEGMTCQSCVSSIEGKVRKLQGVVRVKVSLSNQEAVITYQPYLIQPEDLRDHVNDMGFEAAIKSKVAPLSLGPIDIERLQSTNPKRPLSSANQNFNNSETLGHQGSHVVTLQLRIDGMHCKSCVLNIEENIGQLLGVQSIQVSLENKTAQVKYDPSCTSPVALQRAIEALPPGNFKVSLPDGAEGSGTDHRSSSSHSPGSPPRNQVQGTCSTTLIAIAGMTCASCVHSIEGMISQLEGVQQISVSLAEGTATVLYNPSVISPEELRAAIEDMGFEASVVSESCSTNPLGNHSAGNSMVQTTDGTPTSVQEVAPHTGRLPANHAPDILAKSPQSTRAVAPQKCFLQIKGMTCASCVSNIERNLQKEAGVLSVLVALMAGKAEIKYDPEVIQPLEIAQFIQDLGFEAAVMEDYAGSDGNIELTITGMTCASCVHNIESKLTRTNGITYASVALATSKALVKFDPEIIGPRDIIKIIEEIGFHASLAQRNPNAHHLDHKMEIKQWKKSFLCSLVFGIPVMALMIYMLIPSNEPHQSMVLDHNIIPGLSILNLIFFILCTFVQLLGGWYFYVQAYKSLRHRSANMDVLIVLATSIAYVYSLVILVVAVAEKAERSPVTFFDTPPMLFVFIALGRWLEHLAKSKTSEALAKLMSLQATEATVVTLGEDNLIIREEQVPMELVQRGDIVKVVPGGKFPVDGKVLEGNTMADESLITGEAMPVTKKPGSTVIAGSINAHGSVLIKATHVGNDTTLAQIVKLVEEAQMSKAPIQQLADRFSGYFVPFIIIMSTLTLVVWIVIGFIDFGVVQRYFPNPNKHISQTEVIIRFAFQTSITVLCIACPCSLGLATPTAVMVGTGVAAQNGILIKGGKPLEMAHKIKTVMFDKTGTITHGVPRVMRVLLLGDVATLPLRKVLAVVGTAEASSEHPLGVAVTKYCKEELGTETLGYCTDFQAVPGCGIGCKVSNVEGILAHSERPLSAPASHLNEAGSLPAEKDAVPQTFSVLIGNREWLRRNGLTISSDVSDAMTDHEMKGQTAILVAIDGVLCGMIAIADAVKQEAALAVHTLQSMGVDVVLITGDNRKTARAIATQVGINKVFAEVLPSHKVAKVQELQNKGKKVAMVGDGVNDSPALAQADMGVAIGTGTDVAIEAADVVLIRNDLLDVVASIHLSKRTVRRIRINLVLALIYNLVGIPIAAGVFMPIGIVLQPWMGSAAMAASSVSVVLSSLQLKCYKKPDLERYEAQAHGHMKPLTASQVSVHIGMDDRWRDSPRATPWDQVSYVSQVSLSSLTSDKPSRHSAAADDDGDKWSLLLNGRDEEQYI
# Text: Prior studies have shown that exogenously expressed ATP7B can activate tyrosinase in cells lacking ATP7A. For these studies, a B16 melanoma cell model was used in which tyrosinase activity can be detected by in situ oxidation of L-DOPA to DOPAchrome (10A). As shown earlier, B16 cells deleted for the ATP7A gene (ATP7A^KO) completely lack tyrosinase activity (10B). […] Quantification of tyrosinase activity in these cells is shown (10G). Data represent mean±SEM; ****p<0.0001 of three independent replicates.
# [8] = tested on: LOX activity; test: LOX activity secreted into conditioned media of cancer cells; assay type: cell-based; settings: 5 μM, 4 days
smiles,measurement,setting,value
N#CC(C(=O)Nc1cccc(C(F)(F)F)c1)C(=S)Nc1ccccc1Cl (stereo not drawn) [MKV3],CC50,[1],~75 µM
same,binding to GFP alone,[2],not to GFP alone
same,pigment of melanoma nodules on the lungs,[3],very little pigment
same,copper-stimulated trafficking of ATP7A,[4],blocked
same,cellular copper concentrations,[5],significantly increased
same,copper toxicity,[6],strongly augmented copper toxicity
same,activation of tyrosinase activity by ATP7B,[7],prevented activation of tyrosinase activity
same,LOX activity in conditioned media,[8]; 4T1 breast cancer cells,reduction in LOX activity
same,LOX activity in conditioned media,[8]; LLC lung cancer cells,reduction in LOX activity
